Here are results for 54 compounds from the Deep4Chem optical property database.

This data set in a line: photoluminescence quantum yield (fraction); solvent given as SMILES.

“And” between values parts separate entries of the source, which are not always exact repeats. Equal values may be shown once.

For `CCOC(=O)/N=c1/oc2ccc(OC)cc2cc1C#N`, where the note is “in ClCCl”, the photoluminescence quantum yield was determined as 0.047.

For the setting “in C1CCOC1”, `CC(C)(C)c1cc2c3c(c1)-c1cccc4c1N(B3N1c3ccccc3Sc3cccc-2c31)c1ccccc1S4` came in with a photoluminescence quantum yield of 0.05.

On to `CCN(CC)c1ccc(-c2c3c(n4ccc(C(C)=O)cc24)C(=O)N(CCCNC(=O)OC(C)(C)C)C3)cc1`, for which the photoluminescence quantum yield (in CO) turned out to be 0.

As for `C[Si]1(C)c2cc(-c3ccccc3)ccc2C=Cc2ccc(-c3ccccc3)cc21`, the photoluminescence quantum yield (in ClCCl) turned out to be 0.9.

The compound `COc1ccc(-c2ccc(-c3ccccc3)cc2)cc1` yielded a photoluminescence quantum yield (in C1CCCCC1) of 0.7.

For `Cc1ccc(-c2ccc(/C=C/c3ccc([N+](=O)[O-])cc3)cn2)nc1`, the photoluminescence quantum yield (in CC#N) was 0.045.

Consider `c1ccc(N(c2ccccc2)c2cc3c4c(c2)N(c2ccccc2)c2cc5c(cc2B4c2ccccc2N3c2ccccc2)B2c3ccccc3N(c3ccccc3)c3cc(N(c4ccccc4)c4ccccc4)cc(c32)N5c2ccccc2)cc1`, for which the photoluminescence quantum yield by setting is: (in Cc1ccccc1) 0.74; (in Cc1ccccc1-c1cccc(Oc2cc3c4c(c2)Oc2cc(-c5ccccc5C)ccc2B4c2ccc(-c4ccccc4C)cc2O3)c1) 0.82.

Consider `Cc1cc(C)c(B(c2ccsc2-c2sccc2P(=O)(c2ccccc2)c2ccccc2)c2c(C)cc(C)cc2C)c(C)c1`, for which the photoluminescence quantum yield (in CO) came out at 0.52.

In turn, `COc1ccc(C#Cc2c3cc4ccccc4cc3c(C#Cc3ccc(OC)cc3)c3cc4sc(C)cc4cc23)cc1` showed a photoluminescence quantum yield (in ClCCl) of 0.64.

For the compound `c1ccc(-c2nc(-c3ccccc3)n3ccccc23)cc1`, the photoluminescence quantum yield runs as follows: (in ClC(Cl)Cl) 0.14; (in ClCCl) 0.217.

As to `CCCCc1ccc2ccc3c(CCCC)cc(CCCC)c4ccc1c2c34`, the photoluminescence quantum yield is 0.49 (in CCCCCC), 0.6 (in CO) and 0.43 (in ClCCl).

Regarding `COC(=O)c1nc2cnc(N)nc2n1Cc1ccccc1`, the photoluminescence quantum yield was 0.64 (in C1COCCO1); 0.55 (in CC#N); 0.87 (in CO); 0.42 (in ClCCl); 0.95 (in O).

`Cc1ccc(N(c2ccc(C)cc2)c2ccc(-c3ccc(C=C(C#N)C#N)s3)cc2)cc1` registered a photoluminescence quantum yield (in ClC(Cl)Cl) of 0.07.

Take `C=C[Si]1(C)c2ccccc2-c2cc3c(cc21)-c1ccccc1[Si]3(C)C=C` (stereo not given): the photoluminescence quantum yield (in ClCCl) worked out at 0.5.

For the compound `Cc1ccc2[nH]c(-c3ccc(-c4ccc(-c5ccc(-c6nc7cc(C)ccc7[nH]6)cc5)c(F)c4)cc3)nc2c1`, the photoluminescence quantum yield (in CN(C)C=O) was found to be 0.98.

Regarding `CCCCc1cc2cccc3cc(CCCC)c4cc(-c5cc6[b-]7c(c5)c(CCCC)cc5cccc(cc6CCCC)[n+]75)cc1[b-]4[n+]23`, where the note is “in C1CCCCC1”, the photoluminescence quantum yield came out at 0.06.

The compound `N#Cc1c(-n2cc(-c3ccccc3)nn2)n([C@H]2C[C@H](O)[C@@H](CO)O2)c2ncnc(N)c12` showed a photoluminescence quantum yield (in CO) of 0.004.

Take `Cc1ccccc1-c1nc(-c2ccccc2C)nc(-c2ccc(N3c4ccccc4C4(c5ccccc5-c5ccccc54)c4ccccc43)cc2C)n1`: the photoluminescence quantum yield (in O=P(c1ccccc1)(c1ccccc1)c1ccccc1Oc1ccccc1P(=O)(c1ccccc1)c1ccccc1) came out at 0.62.

On to `F[B-]1(F)Oc2ccc(Br)cc2-c2c3c(c4c([n+]21)CCc1ccccc1-4)CCc1ccccc1-3`, for which the photoluminescence quantum yield (in ClCCl) is 0.23.

Take `COCc1ncc(-c2c3ccccc3c(-c3cnc(COC)nc3)c3ccccc23)cn1`: the photoluminescence quantum yield was found to be 0.89 (in CCO) and 0.83 (in ClCCl).

As to `CC1(C)Cc2c(c3ccccc3c3nc4c5c(c6ccccc6c4nc23)OC(C)(C)C5)O1`, the photoluminescence quantum yield is 0.42 (in C1CCCCC1); 0.47 (in C1COCCO1); 1 (in CC#N); 1 (in CC(C)O); 0.27 (in CCCCCC); 1 (in CO). For the same compound, the photoluminescence quantum yield reads like this: (in ClC(Cl)Cl) 0.53; (in c1ccccc1) 0.52.

As for `Clc1nc(Cl)nc(Nc2cc3ccc4cccc5ccc(c2)c3c45)n1`, the photoluminescence quantum yield by setting is: (in CC#N) 0; (in CCCCOCCCC) 0.06; (in CO) 0.

Turning to `CCCCCCN(CCCCCC)c1ccc(C#Cc2ccc(-c3ccc(C#Cc4ccc(N(CCCCCC)CCCCCC)cc4)cc3)cc2)cc1`, the photoluminescence quantum yield (in Cc1ccccc1) came out at 0.87.

Where the note is “in CO”, `N#Cc1cccc(-c2nc(-c3ccccc3)c(-c3ccccc3)[nH]2)c1` gave a photoluminescence quantum yield of 0.2.

On to `O=c1oc2cc3ccccc3cc2nc1-c1ccccc1`, for which the photoluminescence quantum yield (in CC#N) came out at 0.003; the photoluminescence quantum yield (in CCCCCC) worked out at 0.003; the photoluminescence quantum yield (in CO) is 0.003; the photoluminescence quantum yield (in c1ccccc1) is 0.003 and 0.002.

In the case of `c1ccc2cc(-c3cc(-c4nccs4)nc(-c4nccs4)c3)ccc2c1`, the photoluminescence quantum yield reads like this: (in CC#N) 0.36; (in CCCCCC) 0.289; (in CO) 0.328; (in ClC(Cl)Cl) 0.166.

`CN(C)c1ccc(C2=CC3=C(c4ccc(C=O)cc4)[C@H]4c5ccccc5[C@]3(S2)c2ccccc24)cc1` gave a photoluminescence quantum yield (in ClCCl) of 0.46.

Regarding `COc1ccc(C2=C3C(/C=C/c4cc(OC)c(OC)c(OC)c4)=C(C=O)C(/C=C/c4cc(OC)c(OC)c(OC)c4)=[N+]3[B-](F)(F)n3c(/C=C/c4cc(OC)c(OC)c(OC)c4)c(C=O)c(C=Cc4cc(OC)c(OC)c(OC)c4)c32)cc1`, the photoluminescence quantum yield (in ClCCl) amounted to 0.4.

Consider `COc1ccc(-c2c3ccc([nH]3)c3nc(c(-c4ccc([N+](=O)[O-])cc4)c4ccc([nH]4)c4ccc([nH]4)c(-c4ccc(OC)cc4)c4ccc2o4)C=C3)cc1`, for which the photoluminescence quantum yield amounted to 0.013 (in C1CCOC1), 0.075 (in Cc1ccccc1) and 0.08 (in c1ccccc1).

Consider `Cc1c2c(nc3ccccc13)-c1cc3c(cc1CC2)-c1nc2ccccc2c(C)c1CC3`, for which the photoluminescence quantum yield (in ClC(Cl)Cl) turned out to be 0.435.

Consider `Cn1ccc(-n2cncn2)nc1=O`, for which the photoluminescence quantum yield (in O) came out at 0.114.

As to `Oc1ccc2ccccc2c1/C=N/C1CCCCC1/N=C/c1c(O)ccc2ccccc12` (stereo not given), under “in CC#N”, the photoluminescence quantum yield was found to be 0.078.

For the compound `COc1cc2oc(=O)c3c4ccc(C(=O)c5ccccc5)cc4c4ccc5cccc6c(c1)c2c3c4c56`, for the setting “in C1CCOC1”, the photoluminescence quantum yield was 0.448.

As to `F[B-]1(F)n2c(c(-c3ccccc3)c(-c3cccs3)c2-c2ccccc2)N=C2C(c3ccccc3)=C(c3cccs3)C(c3ccccc3)=[N+]21`, the photoluminescence quantum yield (in ClCCl) was found to be 0.

`Cc1ccc(C2=C3C=CC(Nc4ccccc4)=[N+]3[B-](F)(F)n3c(Nc4ccccc4)ccc32)cc1`: the photoluminescence quantum yield (in CO) stood at 0.45.

For the setting “in ClCCl”, `C(=C\c1ncc(-c2ccc(OCc3ccccc3)c(OCc3ccccc3)c2)o1)/c1cccc(N2CCCC2)c1` yielded a photoluminescence quantum yield of 0.35.

Consider `N#Cc1cc(-n2c3ccccc3c3ccccc32)c(-n2c3ccccc3c3ccccc32)cc1-c1cc(-n2c3ccccc3c3ccccc32)c(-n2c3ccccc3c3ccccc32)cc1C#N`, for which, for the setting “in Cc1ccccc1”, the photoluminescence quantum yield turned out to be 0.46.

Under “in ClCCl”, `CC(C)(C)c1cc2ccc3c(N(c4ccccc4)c4ccccc4)cc(N(c4ccccc4)c4ccccc4)c4ccc(c1)c2c34` showed a photoluminescence quantum yield of 0.82.

Regarding `CCCCCCCCCCCCCCCCCCN1C(=O)c2ccc3c4ccc5c6c(ccc(c7ccc(c2c37)C1=O)c64)C(=O)NC5=O`, the photoluminescence quantum yield (in CN(C)C=O) stood at 0.37.

As to `N#C/C(=C\c1ccc(C#N)cc1)c1nc(-c2ccccc2)c(-c2ccccc2)s1`, the photoluminescence quantum yield (in CC#N) was determined as 0.101.

In turn, `CCCCOc1ccc(-c2cc3c(o2)c(-c2ccc(OCCCC)cc2)c2n3[B-](F)(F)[N+]3=Cc4c(-c5ccc(OCCCC)cc5)c5oc(-c6ccc(OCCCC)cc6)cc5n4[B-](F)(F)[N+]3=C2)cc1` returned a photoluminescence quantum yield (in C1CCOC1) of 0.44; a photoluminescence quantum yield (in CN(C)C=O) of 0.32; a photoluminescence quantum yield (in CS(C)=O) of 0.3; a photoluminescence quantum yield (in Cc1ccccc1) of 0.37; a photoluminescence quantum yield (in ClC(Cl)Cl) of 0.41; a photoluminescence quantum yield (in ClCCl) of 0.4.

As to `O=[N+]([O-])c1ccc(S(=O)(=O)Nc2ccc(C#Cc3ccc4ccc5ccc(C#Cc6ccc(NS(=O)(=O)c7ccc([N+](=O)[O-])cc7[N+](=O)[O-])cc6)c6ccc3c4c56)cc2)c([N+](=O)[O-])c1`, the photoluminescence quantum yield (in CO) was determined as 0.003.

Regarding `CCCCC(CC)CN1C(=O)c2cccc3c(C#Cc4ccc(N(c5ccccc5)c5ccccc5)cc4)ccc(c23)C1=O` (stereo not given), the photoluminescence quantum yield came out at 0.66 (in C1CCCCC1); 0.62 (in C1CCOC1); 0.026 (in CC#N); 0.89 (in Cc1ccccc1); 0.51 (in ClC(Cl)Cl).

Consider `Cc1ccc(C2=C(c3ccc(C)cc3)c3cccc4c3c(cc3nc5ccccc5nc34)O2)cc1`, for which, for the setting “in ClCCl”, the photoluminescence quantum yield was 0.43.

With `O=c1c2cc(Cl)ccc2nc2n1[B-](F)(F)[n+]1ccccc1-2`, the photoluminescence quantum yield by setting is: (in CC#N) 0.89; (in ClCCl) 0.99.

With `Oc1ccccc1/C=N/C1CCCCC1/N=C/c1ccccc1O` (stereo not given), the photoluminescence quantum yield (in CC#N) stood at 0.069.

Take `CCCCCCOc1cc(C=C(C#N)C#N)c(OCCCCCC)cc1C=C(C#N)C#N`: the photoluminescence quantum yield (in ClCCl) amounted to 0.868.

Compound `C[N+]1=C(/C=C/C=C2/N(CCCc3ccccc3)c3ccccc3C2(C)C)C(C)(C)c2ccccc21` had a photoluminescence quantum yield (in CS(C)=O) of 0.08.

Compound `c1ccc(N(c2ccccc2)c2ccccc2)cc1` yielded a photoluminescence quantum yield (in CCO) of 0.03.

As to `COc1ccc(-c2ccc(-c3ccc(OC)cc3)cc2)cc1`, where the note is “in C1CCCCC1”, the photoluminescence quantum yield worked out at 0.64.

Consider `F[B-]1(F)n2c(c3cccc4cccc2c43)=Nc2cccc[n+]21`, for which the photoluminescence quantum yield reads like this: (in C1CCOC1) 0.99; (in CC#N) 0.99; (in CCCCCC) 0.99; (in Cc1ccccc1) 0.99; (in ClCCl) 0.99.

`COCCC1=Cc2nc1ccc1[nH]c(cc1CCOC)c1nc(c(O)cc3[nH]c2cc3CCOC)C(CCOC)=C1`: the photoluminescence quantum yield (in Cc1ccccc1) is 0.18.

Take `COc1ccc(-c2c3ccccc3c(-c3ccc(OC)cc3)c3ccccc23)cc1`: the photoluminescence quantum yield (in ClCCl) came to 0.59.

For `O=[N+]([O-])c1ccc(C#Cc2ccc3ccccc3c2)cc1`, the photoluminescence quantum yield reads like this: (in ClC(Cl)Cl) 0.005; (in ClCCl) 0.006.
